According to patent publication US20050222204A1, “Opioid receptor antagonists” (priority 2002, published 2005):
Like-named read-outs stand apart in the source and are kept apart here.

How the values were obtained:
[1] = biological target: T1, human opioid receptors, Kappa (KOR) (Homo sapiens, UniProt P41145); test: GTPγS functional antagonist assay (SPA), kappa receptor, vs U69593; type: biochemical
T1 construct: expressed in transfected cells
Method: (§1) An SPA-based GTPgS assay format was developed based on previous opioid (Emmerson et al., J. Pharm Exp Ther 278,1121,1996; Homg et al., Society for Neuroscience Abstracts, 434.6, 2000) and muscarinic (DeLapp et al., JPET 289, 946, 1999) assay formats. Membranes were resuspended in 20 mM HEPES, 100 mM NaCl, 5 mM MgCl2, 1 mM DTT, and 1 mM EDTA. […] of GTPγ[35S], compound, membrane suspension (20 microgram/well), and wheat germ agglutinin coated SPA beads (1 mg/well) were added to clear bottom 96 well assay plates. GDP ([…]) was added to the membrane solution prior to addition to the assay plates. Plates were sealed and incubated for four hours at room temperature then placed in a refrigerator overnight to allow the beads to settle. […] Plates were warmed to room temperature and counted in a Wallac Microbeta scintillation counter. For antagonist assays, specific agonists were added at the following concentrations: (MOR) DAMGO 1 micromolar, (DOR) DPDPE 30 nM, (KOR) U69593 300 nM. Kb's were determined by Cheng-Prusoff equation (Cheng and Prusoff, 22,3099 1973).

[2] = biological target: T2, human opioid receptors, Mu (MOR) (Homo sapiens, UniProt P35372); test: GTPγS functional antagonist assay (SPA), mu receptor, vs DAMGO; type: biochemical
T2 construct: expressed in transfected cells
T2 sequence (P35372 whole entry): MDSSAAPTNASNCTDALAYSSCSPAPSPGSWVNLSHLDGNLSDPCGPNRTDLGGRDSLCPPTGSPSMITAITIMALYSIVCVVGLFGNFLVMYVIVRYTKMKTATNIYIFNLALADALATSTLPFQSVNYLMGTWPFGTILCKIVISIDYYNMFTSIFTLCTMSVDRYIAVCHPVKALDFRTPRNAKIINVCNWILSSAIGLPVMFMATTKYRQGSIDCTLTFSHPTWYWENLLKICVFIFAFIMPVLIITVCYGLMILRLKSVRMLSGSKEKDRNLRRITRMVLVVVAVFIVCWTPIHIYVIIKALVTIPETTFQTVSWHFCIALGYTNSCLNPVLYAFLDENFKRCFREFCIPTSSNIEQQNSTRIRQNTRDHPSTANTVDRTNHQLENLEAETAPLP
Method: as §1

[3] = biological target: T3, human opioid receptors, Delta (DOR) (Homo sapiens, UniProt P41143); test: GTPγS functional antagonist assay (SPA), delta receptor, vs DPDPE; type: biochemical
T3 construct: expressed in transfected cells
T3 sequence (P41143 whole entry): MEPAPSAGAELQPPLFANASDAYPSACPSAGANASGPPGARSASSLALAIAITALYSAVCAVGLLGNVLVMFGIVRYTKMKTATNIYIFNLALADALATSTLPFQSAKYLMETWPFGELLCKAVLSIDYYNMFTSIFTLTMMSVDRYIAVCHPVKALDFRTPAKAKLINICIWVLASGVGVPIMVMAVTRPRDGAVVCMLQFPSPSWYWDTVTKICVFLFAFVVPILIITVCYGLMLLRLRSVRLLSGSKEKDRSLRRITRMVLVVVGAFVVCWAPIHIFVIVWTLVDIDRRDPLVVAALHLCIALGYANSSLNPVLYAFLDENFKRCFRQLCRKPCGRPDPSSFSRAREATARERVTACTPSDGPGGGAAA
Method: as §1

[4] = Bioavailability in rat (Table 2); conditions: in vivo, read-out: Metabolis Rat (bioavailability)
[5] = biological target: T4, human Cytochrome 2D6 (CYP2D6) (Homo sapiens, UniProt P10635); test: Assay for inhibition of CYP2D6 activity (human liver microsomes, bufuralol substrate); type: in vitro ADME
T4 construct: from tissue; host or cells: human liver microsomes
T4 sequence (P10635 whole entry): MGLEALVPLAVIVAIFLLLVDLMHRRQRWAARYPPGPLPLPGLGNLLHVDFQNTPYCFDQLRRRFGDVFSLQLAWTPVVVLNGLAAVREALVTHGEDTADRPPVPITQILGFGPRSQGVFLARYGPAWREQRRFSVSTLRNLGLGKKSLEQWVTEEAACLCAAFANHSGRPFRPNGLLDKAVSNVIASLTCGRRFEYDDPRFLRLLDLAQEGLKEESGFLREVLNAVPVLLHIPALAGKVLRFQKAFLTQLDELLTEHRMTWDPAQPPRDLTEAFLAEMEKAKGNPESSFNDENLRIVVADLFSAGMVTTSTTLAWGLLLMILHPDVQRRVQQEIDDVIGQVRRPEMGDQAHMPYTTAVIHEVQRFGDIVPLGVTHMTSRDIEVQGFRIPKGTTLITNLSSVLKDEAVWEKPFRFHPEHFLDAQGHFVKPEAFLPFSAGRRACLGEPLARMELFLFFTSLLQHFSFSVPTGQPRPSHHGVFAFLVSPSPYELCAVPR
Method: The reduced potential for inhibition of cytochrome P450 was discovered using a standard assay that monitors the compound's ability to inhibit Cyp2D6 a member of the cytochrome P450 family of enzymes.
Assay for Inhibition of CYP2D6 Activity
The inhibition of human Cytochrome 2D6 (CYP2D6) activity was studied using a validated high through-put screening assay. A 3 uL aliquot of an 8 mM stock solution of compound was delivered to 397 uL of pH 7.4 (50 mM) phosphate buffer resulting in an initial concentration of 60 uM. The compound dose solutions were prepared by serial dilutions to produce concentrations of […]. A 6 mM NaDPH stock solution was prepared by addition of 100 mg of NaDPH to 20 mL of pH 7.4 buffer. A 600 uL aliquot of Human liver Microsomes (HLM-20.0 mg/ml) was added to 20 ml of pH 7.4 phosphate buffer to produce a 0.6 mg/ml solution of HLM. To the HLM mixture was added 120 uL of a 10 mM bufurolol solution (CYP2D6 substrate) producing a final bufuralol concentration of 60 uM. To each assay plate was added 100 uL of the compound dose solutions, 25 uL NaDPH and 25 uL HLM/bufurolol solution. Samples were incubated at 37° C. for 10 minutes and the reaction was quenched with 25 uL of a 2% perchloric acid solution, followed by centrifugation at 3200 rpm for 30 min. The resulting supernatant was assayed for bufurolol concentrations using a Turbo Ion Spray API 150EX MS method. The calculated IC50 value represents the compound concentration that results in a 50% reduction in burfurolol consumption. Table 3 below provides a comparative data for inhibition of CyP2D6.

male Long-Evans rats = test: Antiorexigenic effect: food consumption in fasted rats; type: in vivo, rat; conditions: oral 3 mg/kg; rats fasted 18 hours; over 1 hour, 2 hour and 4 hour periods; vs untreated control
Method: Compounds were tested for effects on food consumption in male Long-Evans rats which had been fasted for 18 hours prior to testing. The weight of food consumed was measured for groups of 6 rats treated with test substance and compared to the food consumed by an untreated control group of 6 animals.

T1 sequence (P41145 whole entry): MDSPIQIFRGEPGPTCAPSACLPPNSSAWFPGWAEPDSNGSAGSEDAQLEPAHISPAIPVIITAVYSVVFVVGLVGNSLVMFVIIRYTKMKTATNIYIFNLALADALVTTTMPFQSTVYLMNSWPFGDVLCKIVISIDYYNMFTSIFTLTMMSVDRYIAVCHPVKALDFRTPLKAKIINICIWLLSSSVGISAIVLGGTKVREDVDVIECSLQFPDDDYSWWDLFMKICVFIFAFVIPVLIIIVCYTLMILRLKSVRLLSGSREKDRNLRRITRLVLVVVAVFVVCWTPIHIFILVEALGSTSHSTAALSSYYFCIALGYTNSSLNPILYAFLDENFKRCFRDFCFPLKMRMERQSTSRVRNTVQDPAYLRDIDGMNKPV

Row | Compound | Kb [1] [nM] | Kb [2] [nM] | fold more potent than the compound of formula (II) in GTP-γ-S functional antagonist assay ([2]; versus compound (II) of Table 1, mu, kappa, delta) | Kb [3] [nM] | bioavailability [4] [%] | IC50 ([5]; human liver microsomes, bufuralol substrate, 37° C., 10 minutes) [nM] | times less likely to inhibit the cytochrome P450 enzyme system compared to compound (III) ([5]; versus compound (III) of Table 3) | times less likely to cause inhibition of the cytochrome P450 enzyme compared to compound (II) ([5]; versus prior clinical trial candidate compound (II) of Table 3) [times] | inhibition of cumulative food consumed (male Long-Evans rats) | Kb ([3]; read-out: In Vitro GTPγ-S human opioid receptors Delta (Kb)) [nM]
1 | C[C@H]1CN(CC[C@H](O)C2CCCCC2)CC[C@@]1(C)c1cccc(C(N)=O)c1 (stereo in doubt) [(I), 3-[1-(3-Cyclohexyl-3-hydroxy-propyl)-3,4-dimethyl-piperidin-4-yl]-benzamide] | 1.93 | 0.12 | at least 2 fold | 2.81 | 32 | 39000 | over 4 times | ~16 | statistically significant inhibition | –
2 | CCCCCCN1CC[C@@](C)(c2cccc(C(N)=O)c2)[C@@H](C)C1 [(II), reference compound] | 4.51 | 0.31 | – | 8.72 | – | – | – | – | – | –
3 | C[C@H]1CN(CC[C@H](O)C2CCCCC2)CC[C@@]1(C)c1cccc(O)c1 [(III)] | – | – | – | – | – | – | – | – | – | 1.19
